Results from ChEMBL document CHEMBL5150044, “Macrocyclization of Quinazoline-Based EGFR Inhibitors Leads to Exclusive Mutant Selectivity for EGFR L858R and Del19” (J Med Chem, 2022).
Activity calls are given as the source filed them. The calls are words filed in the database; no cut-off is given here.

Tests used:
BaF3 [1] = assay: cells; assay type: functional, cell-based; details: Mus musculus, BaF3, 72 h
[2] = target: T1, Serine/threonine-protein kinase 17B (Homo sapiens) (UniProt O94768); assay: Binding affinity to recombinant […] (unknown origin) assessed as change in melting temperature 10 uM by differential scanning fluorimetry
T1 sequence (whole entry): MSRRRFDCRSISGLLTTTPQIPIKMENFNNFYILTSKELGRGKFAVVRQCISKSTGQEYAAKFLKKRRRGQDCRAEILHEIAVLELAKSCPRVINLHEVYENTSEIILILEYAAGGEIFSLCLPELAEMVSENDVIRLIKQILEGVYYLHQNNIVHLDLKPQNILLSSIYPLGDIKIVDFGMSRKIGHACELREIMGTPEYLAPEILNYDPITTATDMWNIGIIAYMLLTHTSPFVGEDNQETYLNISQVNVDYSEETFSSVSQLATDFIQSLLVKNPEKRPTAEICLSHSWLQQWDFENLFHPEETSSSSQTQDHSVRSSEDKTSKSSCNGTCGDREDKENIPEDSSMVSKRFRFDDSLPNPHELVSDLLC

BaF3 [3] = assay: cells; assay type: functional, cell-based; details: Mus musculus, BaF3, 72 h; remark: listed apart in the source
[4] = target: T2, Mitogen-activated protein kinase 1 and 3 (ERK2 and ERK1) (Mus musculus) (UniProt P63085+Q63844); assay type: cell-based; details: BaF3, dose 10-1000 nM, time 8.0 hrs
[5] = target: T3, Serine/threonine-protein kinase 17A (Homo sapiens) (UniProt Q9UEE5); assay: Binding affinity to recombinant STK17A (unknown origin) assessed as change in melting temperature 10 uM by differential scanning fluorimetry
T3 sequence (whole entry): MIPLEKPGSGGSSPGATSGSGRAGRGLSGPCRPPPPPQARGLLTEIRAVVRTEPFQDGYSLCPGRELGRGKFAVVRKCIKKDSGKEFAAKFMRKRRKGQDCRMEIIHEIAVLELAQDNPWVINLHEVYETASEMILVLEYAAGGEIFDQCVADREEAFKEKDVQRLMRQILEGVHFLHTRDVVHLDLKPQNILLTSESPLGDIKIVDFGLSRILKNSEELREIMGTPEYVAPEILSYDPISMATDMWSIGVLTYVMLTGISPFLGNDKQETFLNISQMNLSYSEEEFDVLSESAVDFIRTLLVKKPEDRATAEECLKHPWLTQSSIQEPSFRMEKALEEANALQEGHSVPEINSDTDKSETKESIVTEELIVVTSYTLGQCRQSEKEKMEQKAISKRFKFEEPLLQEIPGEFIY

[6] = target: T2, Mitogen-activated protein kinase 1 and 3 (ERK2 and ERK1) (Mus musculus); assay: Inhibition of ERK1/2 phosphorylation in mouse BaF3 cells harboring L858R mutant assessed as ERK1/2 phosphorylation at 10 to 1000 nM incubated for 8 hrs by Western blot analysis; assay type: cell-based; details: dose 10-1000 nM
BaF3 [7] = assay: cells; details: Mus musculus, BaF3, 72 h
[8] = target: T4, Cyclin-G-associated kinase (Homo sapiens) (UniProt O14976); assay: Binding affinity to recombinant GAK (unknown origin) assessed as change in melting temperature 10 uM by differential scanning fluorimetry
T4 sequence (whole entry): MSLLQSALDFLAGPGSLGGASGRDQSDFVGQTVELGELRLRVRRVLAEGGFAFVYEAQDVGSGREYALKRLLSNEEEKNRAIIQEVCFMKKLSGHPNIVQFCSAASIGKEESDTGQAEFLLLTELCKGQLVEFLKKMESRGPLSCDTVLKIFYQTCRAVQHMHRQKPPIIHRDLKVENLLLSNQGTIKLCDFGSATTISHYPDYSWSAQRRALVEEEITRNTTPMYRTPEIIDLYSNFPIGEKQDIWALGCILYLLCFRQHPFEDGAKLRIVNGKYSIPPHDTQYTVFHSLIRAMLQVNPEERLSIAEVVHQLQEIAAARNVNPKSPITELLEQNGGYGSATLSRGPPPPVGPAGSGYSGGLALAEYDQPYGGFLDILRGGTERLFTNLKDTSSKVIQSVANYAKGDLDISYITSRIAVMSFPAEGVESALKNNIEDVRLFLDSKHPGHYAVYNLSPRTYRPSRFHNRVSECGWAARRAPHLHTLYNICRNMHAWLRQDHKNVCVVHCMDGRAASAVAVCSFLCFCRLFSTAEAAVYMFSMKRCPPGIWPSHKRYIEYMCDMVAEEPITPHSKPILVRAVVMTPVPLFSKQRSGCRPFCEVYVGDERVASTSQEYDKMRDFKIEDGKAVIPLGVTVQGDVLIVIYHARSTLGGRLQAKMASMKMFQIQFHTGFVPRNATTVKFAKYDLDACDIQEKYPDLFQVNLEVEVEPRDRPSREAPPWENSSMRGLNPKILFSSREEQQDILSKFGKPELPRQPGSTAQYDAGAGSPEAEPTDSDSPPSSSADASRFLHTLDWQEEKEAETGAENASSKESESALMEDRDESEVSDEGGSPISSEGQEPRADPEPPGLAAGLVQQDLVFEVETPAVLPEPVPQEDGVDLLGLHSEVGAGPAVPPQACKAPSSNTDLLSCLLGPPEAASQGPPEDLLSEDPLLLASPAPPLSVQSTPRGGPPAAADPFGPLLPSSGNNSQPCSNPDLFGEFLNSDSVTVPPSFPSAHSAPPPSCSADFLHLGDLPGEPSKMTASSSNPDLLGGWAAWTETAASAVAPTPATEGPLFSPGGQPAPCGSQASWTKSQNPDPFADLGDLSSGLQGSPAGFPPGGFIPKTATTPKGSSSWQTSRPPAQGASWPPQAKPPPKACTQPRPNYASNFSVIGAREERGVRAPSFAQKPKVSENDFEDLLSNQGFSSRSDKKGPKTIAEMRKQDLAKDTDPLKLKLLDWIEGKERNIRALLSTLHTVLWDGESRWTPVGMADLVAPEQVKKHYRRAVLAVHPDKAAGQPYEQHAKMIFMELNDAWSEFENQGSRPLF

T2 sequence (P63085 whole entry, looked up): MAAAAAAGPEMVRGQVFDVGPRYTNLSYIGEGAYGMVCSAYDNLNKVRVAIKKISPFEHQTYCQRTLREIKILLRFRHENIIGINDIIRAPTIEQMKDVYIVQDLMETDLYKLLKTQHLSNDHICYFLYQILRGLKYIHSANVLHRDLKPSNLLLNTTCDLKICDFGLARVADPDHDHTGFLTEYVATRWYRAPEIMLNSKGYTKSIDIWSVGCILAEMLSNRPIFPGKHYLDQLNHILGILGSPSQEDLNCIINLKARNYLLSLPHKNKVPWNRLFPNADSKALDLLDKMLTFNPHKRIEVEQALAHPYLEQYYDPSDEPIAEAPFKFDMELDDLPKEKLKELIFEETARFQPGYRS
T2 sequence (Q63844 whole entry, looked up): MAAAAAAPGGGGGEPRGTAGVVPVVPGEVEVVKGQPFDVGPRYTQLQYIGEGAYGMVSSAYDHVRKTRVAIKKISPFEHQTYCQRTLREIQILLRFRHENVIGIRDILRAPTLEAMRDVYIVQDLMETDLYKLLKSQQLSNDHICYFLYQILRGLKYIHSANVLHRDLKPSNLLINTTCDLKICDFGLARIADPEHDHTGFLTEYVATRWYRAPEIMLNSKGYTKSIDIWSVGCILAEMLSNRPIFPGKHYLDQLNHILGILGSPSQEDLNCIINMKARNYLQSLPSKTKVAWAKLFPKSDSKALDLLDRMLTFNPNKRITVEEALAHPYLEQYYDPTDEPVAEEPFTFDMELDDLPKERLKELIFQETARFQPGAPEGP

## COc1cc2ncnc(Nc3cc(Cl)c(F)cc3O)c2cc1O
BaF3 [1]
  IC50: 5.18 µM
[2]
  ΔTm: > 3 °C
BaF3 [3]
  IC50: 0.12 µM
[4]
  inhibition: Active
[5]
  ΔTm: > 3 °C
[6]
  inhibition: Active
BaF3 [7]
  IC50: 0.141 µM
[8]
  ΔTm: > 3 °C
